# Assay results taken from US11590139B2, “Substituted aminopurine compounds, compositions thereof, and methods of treatment therewith” (Signal Pharmaceuticals, LLC, priority 2014, dated 2023).
# Tested on: Lox-IMVI melanoma cell line
# Experiment: Lox-IMVI anti-proliferative assay (growth inhibition, Cell Titer-Glo)
# Format: cell-based, human
# Settings: Homo sapiens; IC50 activity level in the cell-based Lox-IMVI anti-proliferative assay; read-out: Activity
# Summary of the method: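 IC50 values reflect the concentration giving 50% of DMSO-control luminescence after 72 h of treatment, fitted with a four-parameter logistic model. Cells were cultured in RPMI + 10% FBS with compound from 0.5 nM to 10 μM.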
row,IC50 [nM],Molecule
1,> 1000,"N#Cc1ccc(Nc2nc3cnc(NC4CCOCC4)nc3n2[C@H]2CC[C@@H](C(N)=O)CC2)c(F)c1F [Example 379, (1s,4s)-4-(8-(4-cyano-2,3-difluorophenylamino)-2-(tetrahydro-2H-pyran-4-ylamino)-9H-purin-9-yl)cyclohexanecarboxamide]"
2,> 1000,"Cc1c(Cl)ccc(F)c1Nc1nc2cnc(NC3CCOCC3)nc2n1[C@H]1CC[C@@H](C(N)=O)CC1 [Example 79, (1s,4s)-4-(8-(3-chloro-6-fluoro-2-methylphenylamino)-2-(tetrahydro-2H-pyran-4-ylamino)-9H-purin-9-yl)cyclohexanecarboxamide]"
3,500 to 1000,"CC[C@@H](CO)Nc1ncc2nc(Nc3c(F)cc(Cl)cc3F)n([C@H]3CC[C@@H](C(N)=O)CC3)c2n1 [Example 146, (1R,4s)-4-(8-(4-chloro-2,6-difluorophenylamino)-2-((S)-1-hydroxybutan-2-ylamino)-9H-purin-9-yl)cyclohexanecarboxamide]"
4,> 1000,"CC(C)(C)OC(=O)N1CCC[C@@H](Nc2ncc3nc(Nc4c(Cl)cc(Cl)cc4Cl)n([C@H]4CC[C@@H](C(N)=O)CC4)c3n2)C1 [Example 163, (R)-tert-butyl 3-(9-((1s,4S)-4-carbamoylcyclohexyl)-8-(2,4,6-trichlorophenylamino)-9H-purin-2-ylamino)piperidine-1-carboxylate]"
5,> 1000,"NC(=O)[C@H]1CC[C@@H](n2c(Nc3c(F)cc(F)cc3F)nc3cnc(N[C@H]4CCOC[C@@H]4F)nc32)CC1 [Example 277, (1R,4s)-4-(2-((3R,4S)-3-fluorotetrahydro-2H-pyran-4-ylamino)-8-(2,4,6-trifluorophenylamino)-9H-purin-9-yl)cyclohexanecarboxamide]"
6,< 250,"NC(=O)[C@H]1CC[C@@H](n2c(Nc3c(F)cc(F)cc3F)nc3cnc(N[C@@H]4CCOC[C@H]4F)nc32)CC1 [Example 276, (1S,4s)-4-(2-((3S,4R)-3-fluorotetrahydro-2H-pyran-4-ylamino)-8-(2,4,6-trifluorophenylamino)-9H-purin-9-yl)cyclohexanecarboxamide]"
7,> 1000,"NC(=O)[C@H]1CC[C@@H](n2c(Nc3cc(F)c(F)cc3Cl)nc3cnc(NC4CCOCC4)nc32)CC1 [Example 100, (1s,4s)-4-(8-(2-chloro-4,5-difluorophenylamino)-2-(tetrahydro-2H-pyran-4-ylamino)-9H-purin-9-yl)cyclohexanecarboxamide]"
8,> 1000,"NC(=O)[C@H]1CC[C@@H](n2c(Nc3c(Cl)cc(Cl)cc3Cl)nc3cnc(N[C@@H]4CCCOC4)nc32)CC1 [Example 111, (1S,4s)-4-(2-((R)-tetrahydro-2H-pyran-3-ylamino)-8-(2,4,6-trichlorophenylamino)-9H-purin-9-yl)cyclohexanecarboxamide]"
9,> 1000,"CC[C@H](CO)Nc1ncc2nc(Nc3c(Cl)cc(Cl)cc3Cl)n([C@H]3CC[C@@H](C(N)=O)CC3)c2n1 [Example 137, (1S,4s)-4-(2-((R)-1-hydroxybutan-2-ylamino)-8-(2,4,6-trichlorophenylamino)-9H-purin-9-yl)cyclohexanecarboxamide]"

# Same assay, conditions: Homo sapiens; Lox-IMVI anti-proliferative assay, IC50 activity level; read-out: Activity
row,IC50 [nM],Molecule
1,250 to 500,"C[C@]1(C(N)=O)CC[C@@H](n2c(Nc3c(F)cc(C#N)cc3Cl)nc3cnc(N[C@@H]4CCC[C@H](O)C4)nc32)CC1 [Example 568, (1S,4s)-4-(8-(2-chloro-4-cyano-6-fluorophenylamino)-2-((1R,3S)-3-hydroxycyclohexylamino)-9H-purin-9-yl)-1-methylcyclohexanecarboxamide]"
2,< 250,"NC(=O)[C@H]1CC[C@@H](n2c(Nc3c(F)cc(Cl)cc3Cl)nc3cnc(NC4CCCOCC4)nc32)CC1 (stereo partly drawn) [Example 537, (1s,4s)-4-(8-(2,4-dichloro-6-fluorophenylamino)-2-(oxepan-4-ylamino)-9H-purin-9-yl)cyclohexanecarboxamide]"
3,> 1000,"C[C@]1(C(N)=O)CC[C@H](n2c(Nc3c(F)cc(Cl)cc3F)nc3cnc(NC4CCCC4)nc32)CC1 [Example 489, (1r,4r)-4-(8-(4-chloro-2,6-difluorophenylamino)-2-(cyclopentylamino)-9H-purin-9-yl)-1-methylcyclohexanecarboxamide]"
4,250 to 500,"C[C@@H]1COCC[C@@H]1Nc1ncc2nc(Nc3c(F)cc(Cl)cc3Cl)n([C@H]3CC[C@@H](C(N)=O)CC3)c2n1 [Example 506, (1R,4s)-4-(8-(2,4-dichloro-6-fluorophenylamino)-2-((3S,4S)-3-methyltetrahydro-2H-pyran-4-ylamino)-9H-purin-9-yl)cyclohexanecarboxamide]"
5,< 250,"N#Cc1cc(Cl)c(Nc2nc3cnc(N[C@@H]4CCC[C@H](O)C4)nc3n2[C@H]2CC[C@@H](C(N)=O)CC2)c(Cl)c1 [Example 455, (1S,4s)-4-(8-(2,6-dichloro-4-cyanophenylamino)-2-((1R,3S)-3-hydroxycyclohexylamino)-9H-purin-9-yl)cyclohexanecarboxamide]"

# Same assay, conditions: Homo sapiens; Lox-IMVI melanoma cell line, anti-proliferative assay; read-out: Activity (IC50 activity level)
row,IC50 [nM],Molecule
1,500 to 1000,"CC1(C)COCC[C@H]1Nc1ncc2nc(Nc3c(F)cc(Cl)cc3Cl)n([C@H]3CC[C@@H](C(N)=O)CC3)c2n1 [Example 764, (1S,4s)-4-(8-(2,4-dichloro-6-fluorophenylamino)-2-((R)-3,3-dimethyltetrahydro-2H-pyran-4-ylamino)-9H-purin-9-yl)cyclohexanecarboxamide]"
2,500 to 1000,"C[C@]1(C(N)=O)CC[C@@H](n2c(Nc3c(F)cc(F)cc3Cl)nc3cnc(N[C@@H]4CCC[C@@H](O)C4)nc32)CC1 [Example 618, (1S,4s)-4-(8-(2-chloro-4,6-difluorophenylamino)-2-((1R,3R)-3-hydroxycyclohexylamino)-9H-purin-9-yl)-1-methylcyclohexanecarboxamide]"
3,> 1000,"N#Cc1cc(Cl)c(Nc2nc3cnc(N[C@@H]4CCCN(Cc5ccccc5)C4)nc3n2[C@H]2CC[C@@H](C(N)=O)CC2)c(Cl)c1 [Example 753, (1S,4s)-4-(2-((R)-1-benzylpiperidin-3-ylamino)-8-(2,6-dichloro-4-cyanophenylamino)-9H-purin-9-yl)cyclohexanecarboxamide]"
4,250 to 500,"C[C@]1(C(N)=O)CC[C@@H](n2c(Nc3c(F)cc(C#N)cc3Cl)nc3cnc(N[C@H]4CC[C@H](O)C4)nc32)CC1 [Example 649, (1R,4s)-4-(8-(2-chloro-4-cyano-6-fluorophenylamino)-2-((1S,3S)-3-hydroxycyclopentylamino)-9H-purin-9-yl)-1-methylcyclohexanecarboxamide]"
5,< 250,"NC(=O)[C@H]1CC[C@@H](n2c(Nc3c(F)cc(F)cc3Cl)nc3cnc(N[C@@H]4CCOC[C@H]4F)nc32)CC1 [Example 630, (1S,4s)-4-(8-(2-chloro-4,6-difluorophenylamino)-2-((3S,4R)-3-fluorotetrahydro-2H-pyran-4-ylamino)-9H-purin-9-yl)cyclohexanecarboxamide]"
6,> 1000,"CC(=O)N1CCC[C@@H](Nc2ncc3nc(Nc4c(F)cc(Cl)cc4F)n([C@H]4CC[C@@H](C(N)=O)CC4)c3n2)C1 [Example 713, (1S,4s)-4-(2-((R)-1-acetylpiperidin-3-ylamino)-8-(4-chloro-2,6-difluorophenylamino)-9H-purin-9-yl)cyclohexanecarboxamide]"

# Same assay, conditions: Lox-IMVI anti-proliferative assay, IC50 activity level; read-out: Activity
row,Molecule,IC50 [nM]
1,"(R)-methyl 3-(9-((1s,4S)-4- carbamoylcyclohexyl)-8-(2,3,4- trifluorophenylamino)-9H-purin-2- ylamino)piperidine-1-carboxylate [Example 414]",> 1000
